According to paper PMC7495481, “Sequence specificity analysis of the SETD2 protein lysine methyltransferase and discovery of a SETD2 super-substrate” (Communications Biology, 2020):
Where “and” joins values, the source holds several entries; their conditions need not be identical. Identical values can stand only once.

Tests used:
Assay type in all cases: biochemical
NSD1 = assay: Peptide methylation by NSD1; conditions: peer review file
From the text: We, therefore, repeated the peptide array used for the development of the SETD2 super-substrate, which is shown in Figure 2A of our manuscript for NSD1 and NSD2. […]
that this mutation specifically increases the activity of these two enzymes. In contrast, with […]
combined with H39N/K. Importantly, in case of SETD2 H39N only has an effect in the context of the other mutations in ssK36. We conclude that the ssK36 substrate is specifically optimized for SETD2 as expected given the workflow of our experiments. The finding that H39N increases the activity of NSD1 and NSD2 is interesting and deserves additional work. It […]
conducted with NSD1 and NSD2. The SETD2 panel is taken from the manuscript for comparison. The table indicates the peptide compositions. Note, the gradual increase of methylation with increasing number of mutations in the case of SETD2. In case of NSD1 and NSD2, increased methylation is solely due to the H39N mutation , which has a weaker […]

SUV39H2 = assay: Methylation of ssK36 by SUV39H2; conditions: peer review file Figure R1
SETD2 = target: T1, SETD2 (Homo sapiens, UniProt Q9BYW2); assay: Peptide SPOT array target lysine methylation of selected non-histone peptides (Fig. 3b); conditions: Exp1–Exp3, 3–6 µM SETD2, 0.76 µM AdoMet, 60 min, pH 9, listed as DS
T1 construct: SETD2 catalytic SET domain (amino acids 1347–1711, UniProt No: Q9BYW2); made in house; host or cells: E. coli
T1 sequence (Q9BYW2 1347-1711): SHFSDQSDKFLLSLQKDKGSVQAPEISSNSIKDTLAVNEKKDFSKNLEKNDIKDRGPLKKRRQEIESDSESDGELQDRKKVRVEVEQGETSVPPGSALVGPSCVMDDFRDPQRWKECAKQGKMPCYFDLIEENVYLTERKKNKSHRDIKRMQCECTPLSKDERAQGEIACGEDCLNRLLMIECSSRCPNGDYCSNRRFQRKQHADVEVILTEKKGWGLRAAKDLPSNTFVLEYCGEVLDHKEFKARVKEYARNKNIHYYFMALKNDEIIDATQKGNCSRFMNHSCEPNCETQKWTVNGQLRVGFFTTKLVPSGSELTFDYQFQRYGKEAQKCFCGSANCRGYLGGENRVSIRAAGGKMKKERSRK

Relative methylation signal, Average (SETD2): 0.95 and 0.9901
Sequence: APRFGGVKRPNRYRP [ssK36, super-substrate peptide with four amino acid exchanges (A31R, T32F, K37R, H39N)]
methylation by NSD1 (NSD1): better substrate than H3K36 | methylation by SUV39H2 (SUV39H2): Lack of methylation
